Ki data for one compound are collected here from ChEMBL document CHEMBL3286251, “Treatment of Immunological or Inflammatory Disorders with ITK Kinase Inhibitors” (ACS Med Chem Lett, 2014).

The target in the experiment is T1, Tyrosine-protein kinase ITK/TSK (Homo sapiens, UniProt Q08881).
T1 sequence (Q08881 whole entry): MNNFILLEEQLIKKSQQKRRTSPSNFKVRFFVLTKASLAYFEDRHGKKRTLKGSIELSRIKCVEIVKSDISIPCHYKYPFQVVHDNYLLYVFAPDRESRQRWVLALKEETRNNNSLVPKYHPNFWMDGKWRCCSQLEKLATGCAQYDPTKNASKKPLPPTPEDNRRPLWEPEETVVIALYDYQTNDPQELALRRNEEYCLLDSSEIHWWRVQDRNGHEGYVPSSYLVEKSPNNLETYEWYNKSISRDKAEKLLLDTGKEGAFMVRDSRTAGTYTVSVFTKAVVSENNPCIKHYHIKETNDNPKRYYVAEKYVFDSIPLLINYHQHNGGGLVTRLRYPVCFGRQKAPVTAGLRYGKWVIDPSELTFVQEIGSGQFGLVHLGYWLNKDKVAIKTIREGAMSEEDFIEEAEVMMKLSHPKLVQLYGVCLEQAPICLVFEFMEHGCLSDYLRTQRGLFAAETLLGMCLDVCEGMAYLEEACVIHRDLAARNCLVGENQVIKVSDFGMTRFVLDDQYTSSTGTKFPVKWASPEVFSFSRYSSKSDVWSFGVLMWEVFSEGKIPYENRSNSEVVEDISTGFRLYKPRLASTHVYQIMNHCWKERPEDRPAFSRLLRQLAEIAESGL
In words: Inhibition of ITK (unknown origin) using Acetyl-EFPIYDFLPAKKK-NH2 peptide as substrate after 1 hr by LC-MS analysis.

By pKi is commonly meant the Ki on a negative log10 scale, so that one unit is a factor of ten.

Structures are written as SMILES. pKi: −log10 of the molar value. A value given as a limit tells only on which side of the number the result lay.

`CC12Cc3[nH]nc(C(=O)Nc4cnn(C(CS(C)(=O)=O)c5cccnc5)c4)c3CC1C2` (stereo unspecified) showed a pKi greater than 10.00.
